Laboratory results: patent publication US10471088B2 (GNOSIS SPA, priority 2006, dated 2019)
“And” between values parts separate entries of the source, which are not always exact repeats. Equal entries are not always repeated.

Columns and labels:
[1] = Accelerated stability (stress test 5 days at 53° C.) of starting material lots prior to / after mixing with calcium oxide; assay type: physicochemical; details: for Moisture content % K.F. (stress test) / Total impurities % (stress test) / % S,S (stress test) / SAMe titre % (stress test): 5 days at 53° C.; for permanent removal of the moisture content: mixture with calcium oxide after the stress test at 53° C. for 5 days
[2] = Analysis of starting material lots (SAMe salts, NADH) prior to / after mixing with calcium oxide, t = 0 and storage at 20° C. for 21 days; assay type: physicochemical; details: for permanent removal of the moisture content: mixture with calcium oxide stored for 21 days at 20° C.; for residual moisture content: starting material
[3] = after mixing with calcium oxide
[4] = prior to mixing with calcium oxide

Row | Compound | Moisture content % K.F. (stress test) [1, 3] | Total impurities % (stress test) [1, 3] | permanent removal of the moisture content [1] | Moisture content % K.F. (stress test) [1, 4] | Total impurities % (stress test) [1, 4] | Moisture content % K.F. t = 0 [2, 3] | Moisture content % K.F. t = 21 days at 20° C. [2, 3] | permanent removal of the moisture content [2] | Moisture content % K.F. t = 0 [2, 4] | Moisture content % K.F. t = 21 days at 20° C. [2, 4] | residual moisture content [2] | % S,S (stress test) [1, 3] | SAMe titre % (stress test) [1, 3] | % S,S (stress test) [1, 4] | SAMe titre % (stress test) [1, 4] | % S,S t = 0 [2, 3] | SAMe titre % t = 0 [2, 3] | Total impurities % t = 0 [2, 3] | % S,S t = 0 [2, 4] | SAMe titre % t = 0 [2, 4] | also measured
1 | NC(=O)C1=CN([C@@H]2O[C@H](COP(=O)(O)OP(=O)(O)OC[C@H]3O[C@@H](n4cnc5c(N)ncnc54)[C@H](O)[C@@H]3O)[C@@H](O)[C@H]2O)C=CC1 [NADH] | 3.23% and 3.54% and 3.10% and 3.49% and 3.45% | 2.67% and 3.14% and 3.02% and 2.45% and 3.54% | approximately 60% | 6.23% and 6.54% and 5.00% and 6.09% and 6.05% | 8.55% and 7.34% and 7.02% and 7.17% and 7.54% | 6.44% and 7.23% and 6.87% and 6.21% and 6.33% | 4.01% and 4.39% and 3.98% and 3.20% and 4.32% | approximately 40% | 6.66% and 7.09% and 5.94% and 6.45% and 6.38% | 6.34% and 6.87% and 5.76% and 6.32% | 5-7 % K.F. | – | – | – | – | – | – | – | – | – | NADH (sodium salt) titre % t = 0 (stress test) [1, 3]: 80.56% and 82.56% and 82.49% and 81.19% and 82.34%; NADH (sodium salt) titre % t = 0 (stress test) [1, 4]: 83.11% and 84.58% and 83.99% and 82.19% and 83.84%; NADH (sodium salt) titre % t = 0 ([2]; after mixing with 10% of calcium oxide): 83.93 (*) % and 84.23 (*) % and 83.95 (*) % and 84.53 (*) % and 85.32 (*) %; NADH (sodium salt) titre % t = 0 [2, 4]: 92.73% and 92.23% and 92.45% and 92.43% and 91.98%
2 | C[S+](CC[C@H](N)C(=O)O)C[C@H]1O[C@@H](n2cnc3c(N)ncnc32)[C@H](O)[C@@H]1O.Cc1ccc(S(=O)(=O)[O-])cc1 (some centres unmarked) [S-adenosyl methionine paratoluene sulphonate] | 0.35% and 0.38% and 0.43% and 0.41% and 0.39% | 2.89% and 3.02% and 3.17% and 2.78% and 2.65% | approximately 60% | 0.99% and 1.00% and 1.09% and 1.05% and 1.03% | 4.34% and 5.02% and 5.17% and 5.54% and 4.55% | 1.04% and 0.95% and 0.98% and 1.16% and 1.00% | 0.59% and 0.61% and 0.63% and 0.55% and 0.70% | approximately 40% | 1.09% and 1.04% and 1.15% and 1.08% and 1.06% | 1.09% and 1.12% and 1.13% and 1.05% and 1.03% | – | 65.79% and 67.25% and 66.47% and 65.43% and 66.56% | 49.98% and 49.87% and 50.09% and 50.00% and 49.81% | 55.79% and 55.28% and 56.21% and 56.31% and 56.12% | 49.58% and 49.99% and 51.19% and 50.84% and 50.11% | 79.99% and 81.23% and 80.67% and 80.32% and 80.11% | 50.23% and 50.19% and 50.22% and 50.02% and 50.16% | 0.94% and 1.04% and 0.66% and 0.73% and 1.03% | 79.82% and 81.54% and 80.87% and 80.02% and 80.21% | 52.23% and 52.29% and 52.96% and 51.98% and 52.76% | Total impurities % t = 0 [2, 4]: 0.94% and 1.04% and 0.66% and 0.73% and 1.03%
3 | C[S+](CC[C@H](N)C(=O)[O-])C[C@H]1O[C@@H](n2cnc3c(N)ncnc32)[C@H](O)[C@@H]1O (some centres unmarked) [SAMe, S-adenosyl methionine] | – | – | – | – | – | – | – | – | – | – | 1-1.5 % K.F. | – | – | – | – | – | – | – | – | – | –
4 | S-adenosyl methionine-1,4-butene disulphonate | 0.81% and 0.88% and 0.78% and 0.87% and 0.93% | 2.13% and 1.35% and 2.03% and 1.98% and 2.00% | approximately 60% | 1.96% and 1.93% and 2.09% and 2.21% and 2.00% | 4.63% and 4.47% and 4.06% and 4.23% and 4.05% | 1.80% and 1.84% and 1.94% and 1.89% and 1.87% | 1.38% and 1.40% and 1.33% and 1.45% and 1.27% | approximately 40% | 1.89% and 1.94% and 2.03% and 2.01% and 1.98% | 1.99% and 2.02% and 2.03% and 2.31% | – | 71.89% and 70.94% and 70.34% and 70.02% and 71.32% | 50.04% and 50.00% and 50.01% and 49.89% | 59.49% and 58.98% and 59.43% and 60.02% and 60.32% | 51.72% and 50.79% and 50.94% and 50.93% and 51.03% | 84.54% and 85.25% and 84.21% and 85.02% and 83.49% | 50.34% and 50.08% and 50.01% and 49.78% and 50.12% | 0.57% and 0.53% and 0.49% and 0.50% | 84.82% and 85.34% and 84.58% and 83.89% | 52.02% and 51.78% and 51.34% and 51.54% and 52.34% | Total impurities % t = 0 [2, 4]: 0.67% and 0.64% and 0.44% and 0.56% and 0.45%
